Data as given in patent publication US20120232113A1, “METHODS OF TREATING EMESIS USING GROWTH HORMONE SECRETAGOGUES” (HELSINN THERAPEUTICS (U.S.), INC., priority 2007, published 2012).
Square brackets hold non-standard residues; d marks the D form. Ends that are not written are not given here. Peptide text beside a SMILES is read from it. d2Nal = N[C@H](Cc1ccc2ccccc2c1)C(=O)O; Aib = CC(C)(N)C(=O)O

Columns and labels:
[1] = system: ferrets treated with cisplatin; test: Anti-emetic response assay in ferrets treated with cisplatin; format: in vivo, ferret; details: for average vomiting episodes during the 4-hour observation period / average retching episodes during the 4-hour observation period: cisplatin 10 mg/kg i.p., two i.v. injections 30 min apart, ghrelin 0.25, ipamorelin 1.0 mg/kg/dose; for average vomiting episodes during the 4-hour observation period: saline control 1.78; for average retching episodes during the 4-hour observation period: saline control 4.89; for anti-emetic efficacy relative to control animals, conclusion in words: i.v., ghrelin 0.25 mg/kg/dose, ipamorelin 1.0 mg/kg/dose; for onset time of emetic response following cisplatin administration (latent period): vs saline control, 4-hour observation
From the text: The purpose of this study was to evaluate the anti-emetic response of Ipamorelin following a single intravenous injection (slow bolus) in ferrets treated with cisplatin.
30 male ferrets (24-weeks old) were used in this experiment. Subsequent to arrival, all animals were subjected to a general physical examination by a qualified member of the veterinary staff to ensure normal health status. An acclimation period of at least one week was allowed between the animal receipt and the start of treatment in order to accustom the animals to the laboratory environment.
Animals were randomized into the following groups:
Dosing occurred on consecutive days with approximately equal numbers of animals from each group being dosed on each day. Immediately following a single intraperitoneal injection of cisplatin, the controUreference/test article was administered via a slow intravenous injection via the cephalic or saphenous vein. Thirty minutes later, a second slow intravenous injection of the controUreference/test article was administered via a slow intravenous injection via the cephalic or saphenous vein. On each occasion, the dose volume was 5 mL/kg (cisplatin as well as control/reference/test article) and the actual dose administered was based on the most recent practical body weight of each animal.
Following dosing, the ferrets were monitored and observed for episodes of emesis for an approximate four hour period, which was subdivided into 10-minute intervals. The time prior to the first episode of retching or vomiting was recorded (latent period), as well the total number of retching and vomiting periods, over each 10-minute interval, through the overall observation period (4 hours post dose).
For the purposes of this study, episodes of emesis were defined as rhythmic abdominal contractions associated with oral expulsion of solid or liquid material from the gastrointestinal tract (i.e. vomiting) or not associated with the passage of material (i.e. retching). An episode of retching and/or vomiting was considered separate when an animal changed position in the cage or when the interval between retches and/or vomits exceeds an approximate 5 second period.
The anti-emetic response was evaluated using the individual observation for: the latent period, the average of retching episodes per 10-minute interval with presence of retching, the average of vomiting episodes per 10-minute interval with presence of vomiting, the total frequency of retching episodes for the observation period, the total frequency of vomiting episodes for the observation period, the total number of 10-minute intervals with presence of retching and the total number of 10-minute intervals with presence of vomiting. Whenever there was no retching or vomiting episode for the whole animal observation period, the latent period was set to 4 hours and the average of retching/vomiting episodes per interval with presence of retching/vomiting was set to zero. Each of these seven parameters was submitted to the following statistical comparison.
The non-parametric Kruskal-Wallis test was used to compare all considered groups. If the Kruskal-Wallis test was significant (p<0.05), then the Saline Control group was compared to each treated group using Dunn's test.

cancer patients [2] = test: 12 week double blind, placebo controlled, randomized parallel study, Anderson Symptom Assessment System (ASAS) test; format: in vivo, human; details: 12 weeks
From the text: A double blind, placebo controlled, randomized study was designed to investigate the ability of growth hormone secretagogues to be used for the treatment of emetic conditions.
82 human subjects were enrolled in a 12 week parallel study. Of the 82 subjects, 74 subjects were classified in the intent to treat group (ITT). These 74 subjects all had active cancer, received at least one dose of study medication, and had at least one post-dose efficacy measurement. The 74 subjects were separated into two groups: the placebo group and the RC-1291 group. 30 of the 36 placebo group subjects and 33 of the 38 RC-1291 group subjects were receiving some form of chemotherapy. The RC-1291 group received 50 mg of RC-1291 in two 25 mg capsules daily. The placebo group received two capsules daily.
The effect of RC-1291 administered to cancer patients was compared to the effect of placebo administered to a similar group of patients. In order to determine the ability of RC-1291 to reduce a subject's cancer symptom burden, i.e. Quality-of-Life, subjects were administered the Anderson Symptom Assessment System (ASAS) test prior to, during and at the completion of the study. The ASAS test is conducted by asking subjects to rate on a 0-10 scale the severity of 10 symptoms: pain, fatigue, nausea, depression, anxiety, drowsiness, shortness of breath, appetite, sleep and feeling of well being (see, Palmer et al. (2005) J. Pain and Symptom Management 6:565-571). The text below reflects and inversion of the ASAS scores such that higher values reflect a better Quality-of-Life: […]

cancer patients [3] = test: Separate crossover study (3 days treatment), ASAS nausea symptom scale; format: in vivo, human
Protocol: The effect of RC-1291 administered to cancer patients was compared to the effect of placebo administered to a similar group of patients. In order to determine the ability of RC-1291 to reduce a subject's cancer symptom burden, i.e. Quality-of-Life, subjects were administered the Anderson Symptom Assessment System (ASAS) test prior to, during and at the completion of the study. The ASAS test is conducted by asking subjects to rate on a 0-10 scale the severity of 10 symptoms: pain, fatigue, nausea, depression, anxiety, drowsiness, shortness of breath, appetite, sleep and feeling of well being (see, Palmer et al. (2005) J. Pain and Symptom Management 6:565-571). The text below reflects and inversion of the ASAS scores such that higher values reflect a better Quality-of-Life:
In a separate crossover study, 16 cancer patients were treated with RC-1291 or placebo as described above for 3 days, washed out for ˜5 days and then administered placebo or RC-1291 (whichever one they had not received in the initial 3 day period). 12 of 16 placebo group subjects and 11 of the 16 RC-1291 group subjects were receiving some form of chemotherapy.

| Compound | average vomiting episodes during the 4-hour observation period [1] | average retching episodes during the 4-hour observation period [1] | anti-emetic efficacy relative to control animals, conclusion in words [1] | onset time of emetic response following cisplatin administration (latent period) [1] | reduction in number of retching episodes compared to saline control animals ([1]; ipamorelin 1.0 mg/kg/dose i.v., p<0.05) [%] | reduction in vomiting episodes relative to saline control animals ([1]; ipamorelin 1.0 mg/kg/dose i.v., p>0.05) | increase in total ASAS score relative to baseline (cancer patients [2]; 50 mg daily in two 25 mg capsules, inverted ASAS scores (higher = better Quality-of-Life), placebo decrease of 5.13) | overall difference in total ASAS score between the two groups (cancer patients [2]; RC-1291 50 mg daily vs placebo, p-0.0287) | ASAS nausea symptom scale, overall difference between treatment groups (cancer patients [2]; RC-1291 50 mg daily vs placebo, p=0.0046) | onset of anti-nausea effects (cancer patients [3]) [days] | ASAS nausea symptom scale, overall difference between treatments (cancer patients [3]; RC-1291 vs placebo, p=0.0756) | nausea (ASAS nausea symptom scale), result in words (cancer patients [3]; increased nausea with placebo) |
| --- | --- | --- | --- | --- | --- | --- | --- | --- | --- | --- | --- | --- |
| Ghrelin: ghrelin peptide, reference article in the ferret study (GSSFLSPEHQRVQQRKESKKPPAKLQPR; ends and bridges not checked; UniProt Q9UBU3 24-51, looked up) [reference compound] | 1.60 | 7.00 | did not display a significant efficacy | Neither the onset time nor the numbers of retches or vomits were statistically different | – | – | – | – | – | – | – | – |
| CC(C)(N)C(=O)N[C@@H](Cc1c[nH]cn1)C(=O)N[C@H](Cc1ccc2ccccc2c1)C(=O)N[C@H](Cc1ccccc1)C(=O)N[C@@H](CCCCN)C(N)=O [Ipamorelin] (H-[Aib]H[d2Nal][dF]K-NH2) | 0.75 | 1.14 | significantly decreased the number of retching episodes | modest, non-statistically significant (p>0.05) delay | 82 | failed to reach statistical significance | – | – | – | – | – | – |
| CN(C)N(C)C(=O)[C@@]1(Cc2ccccc2)CCCN(C(=O)[C@@H](Cc2c[nH]c3ccccc23)NC(=O)C(C)(C)N)C1 [RC-1291] | – | – | – | – | – | – | 1.52 | 6.66 | 1.46 | ≤ 3 | 0.71 | Decreased nausea |
